Reference: patent US20210177814A1, “USE OF GUANABENZ OR DERIVATES THEREOF FOR THE TREATMENT OF TYPE I IFN-DEPENDENT PATHOLOGIES” (INSERM (Institut National de la Santé et de la Recherche …, priority 2018, published 2021)

Target: T1, TLR9 (Mus musculus, UniProt Q9EQU3)
T1 construct: from tissue; host or cells: whole animal: C57BL/6, FVB and FVB GADD34ΔC/ΔC mice
T1 sequence (Q9EQU3 26-1032): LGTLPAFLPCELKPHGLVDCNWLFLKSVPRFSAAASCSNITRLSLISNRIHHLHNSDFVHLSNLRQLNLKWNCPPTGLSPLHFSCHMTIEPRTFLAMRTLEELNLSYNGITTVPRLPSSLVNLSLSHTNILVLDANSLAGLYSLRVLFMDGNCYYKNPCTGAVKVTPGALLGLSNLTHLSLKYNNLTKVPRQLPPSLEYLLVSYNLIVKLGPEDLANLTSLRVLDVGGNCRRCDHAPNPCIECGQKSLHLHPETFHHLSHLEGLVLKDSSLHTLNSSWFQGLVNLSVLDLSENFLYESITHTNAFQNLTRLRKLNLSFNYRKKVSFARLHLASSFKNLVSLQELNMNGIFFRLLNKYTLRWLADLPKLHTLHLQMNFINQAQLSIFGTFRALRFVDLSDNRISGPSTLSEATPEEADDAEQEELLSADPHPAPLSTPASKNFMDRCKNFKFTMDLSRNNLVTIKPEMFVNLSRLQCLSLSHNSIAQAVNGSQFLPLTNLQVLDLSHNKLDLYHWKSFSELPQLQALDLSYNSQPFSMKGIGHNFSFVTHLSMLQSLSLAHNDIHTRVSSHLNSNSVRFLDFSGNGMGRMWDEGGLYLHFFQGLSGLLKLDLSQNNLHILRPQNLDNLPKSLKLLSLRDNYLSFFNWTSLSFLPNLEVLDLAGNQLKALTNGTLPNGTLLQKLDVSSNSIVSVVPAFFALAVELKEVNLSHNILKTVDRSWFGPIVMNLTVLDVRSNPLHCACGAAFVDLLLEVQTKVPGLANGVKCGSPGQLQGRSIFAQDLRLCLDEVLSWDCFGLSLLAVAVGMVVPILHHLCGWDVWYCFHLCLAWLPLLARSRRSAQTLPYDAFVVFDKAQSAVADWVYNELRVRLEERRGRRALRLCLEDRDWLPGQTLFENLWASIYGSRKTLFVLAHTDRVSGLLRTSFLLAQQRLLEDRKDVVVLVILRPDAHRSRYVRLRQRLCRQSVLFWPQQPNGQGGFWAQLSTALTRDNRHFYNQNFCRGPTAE
Assay: D-galN/CpG ODN 1826 cytokine shock model
Format: in vivo
Method: WT and GADD34^ΔC/ΔC mice were injected with D-galN (20 mg/mouse), CpG ODN 1826 or PBS for control mice (50 μg/20 g), GBZ or clonidine (2 mg/kg). (A) Survival of C57/BL6 mice is represented as total percentage of survival after 48 h or in a Kaplan-Meier plot. (B) Survival of FVB (WT) and FVB GADD34^ΔC/ΔC mice is represented as total percentage of survival after 48 h or in a Kaplan-Meier plot. (C) The concentration of circulating TNF-α, IL-10 and IL-6 in C57/BL6 mice was measured after 1 h and/or 3 h of CpG ODN 1826. (D) Liver tissue damage and histology score were blindly determined by a professional anatomopathologist. Statistical significance was assigned on sample comparison by a one-way ANOVA, followed by Tukey range test and on the survival curve using log-rank test, followed by Benjamini-Yekutieli correction (* p<0.05; ** p<0.005; ***p<0.0005.).
Wild type female mice C57BL/6 of 8 weeks of age were injected i.p. with 2 mg/kg of GBZ, clonidine or PBS/DMSO. One hour later, they were injected i.p. with 20 mg/mouse of d-GalN and ODN 1826 50 μg/20 g (or PBS). Mice survival was checked every 12 hours for up to 48 hours. For some experiments, blood sera were collected 1 and 3 h after the injection of D-galN. The serum was used to measure circulating cytokines (TNFα, IL-6, IFNβ IL-10, IL-12). For some experiments, the liver was collected for immunohistochemistry after two days. For i.p. injections, 1 ml syringes and 25 gauge needles were used. Blood was collected from the cheek with a 18 gauge needle; for the TMPD model, no more than 200 μL were collected each time, respecting the ethic statement.
Mouse kidney and liver were fixed in 10% buffered formalin for 24 h, then the tissues were dehydrated and embedded in paraffin. Tissue sections of 3.5 μm were cut using the microtom Leica RM2245. Hematoxylin-eosin staining was effectuated automatically with Leica autostainer XL. Finally, the slides were mounted with entellan and kept at room temperature. Biopsies were analyzed by an anatomopathologist and the clinical score was assigned in a blinded way. Pictures were taken with Nikon Eclipse.
• a) Lobular inflammation • 0—no inflammation, 1—mild lobular inflammation (<10% of liver parenchyma), 2—moderate lobular inflammation (10-50% of liver parenchyma), 3—severe lobular inflammation (>50% of liver parenchyma) • b) Portal inflammation • 0—no portal inflammation, 1—mild portal inflammation (<⅓ of portal tracts), 2—moderate portal inflammation (approximately 50% of portal tracks), 3—severe portal inflammation (>⅔ of portal tracts) • Portal and lobular inflammation score are added=inflammation score • c) Necrosis • 0—No necrosis, 1—<10% necrosis of liver parenchyma, 2—10-25% necrosis of liver parenchyma, 3—25% necrosis of liver parenchyma • Inflammation score and necrosis score are added=Total histologic score

[1] = WT mice, 1 hour after CpG injection, 2 mg/kg

Compound: NC(N)=N/N=C/c1c(Cl)cccc1Cl [GBZ, 2-(2,6-dichlorobenzylidene)-hydrazinecarboximidamide]
- survival after 48 h (C57BL/6 WT mice, D-galN + CpG ODN 1826, compound 2 mg/kg i.p.): up to 70%
- liver cells survival (liver examination and histological scores) (CpG-induced lethality, GBZ 2 mg/kg): little direct protective effect
- survival (FVB GADD34ΔC/ΔC mice, D-galN + CpG, GBZ 2 mg/kg): protected from death
- decrease in efficiency of protection in GADD34ΔC/ΔC mice (GADD34ΔC/ΔC vs WT mice, GBZ 2 mg/kg): ~28%
- production of IL-10 (WT mice after CpG injection, GBZ 2 mg/kg): strongly increased
- circulating IL-6 plasma concentration [1]: strongly attenuated
- circulating TNF-α plasma concentration [1]: strongly attenuated
